The assay concerns BALB/c mice. Briefly: Drug effect durability: serum glucose concentration after hypodermic injection. As to conditions: 10 hours after administration under the dorsal skin, 15 μg insulin, fasted mice. It is filed as in vivo. As to the method:
A particulate preparation enclosing 15 μg (WAKO) of insulin prepared in a method of example 9 was dispersed in 100 μL of normal saline (Otsuka), and was administered to 7-week-old male BALB/c mice (weighing 19 to 24 g) after fasting for 12 hours, under the dorsal skin by using 29 G injection needle (Terumo) (in the control group, 100 μL of normal saline (Otsuka) dissolving 15 μg of insulin was used). After administration, animals were kept fasted in individual cages, and blood samples collected from the caudal artery before and after administration were tested by biochemical automatic analyzer (Fuji Drychem 3500V of Fuji Film), by using measuring slide (GLU-WIII of Fuji Film), and changes of glucose concentration were measured at time intervals, and the average of serum glucose concentration changes of two animals each was calculated.

On to insulin, for which the “serum glucose concentration relative to level before administration” value was 80%.

The record behind these values is patent US20080145432A1, “Fine Particle and Pharmaceutical Preparation” (priority 2005, published 2008).
